In US20230029372A1, “THERAPEUTIC COMPOSITIONS AND METHODS FOR PREVENTION AND TREATMENT OF DIASTOLIC DYSFUNCTION” (AMBETEX PTY LTD, priority 2019, published 2023):
Entries after “also recorded” stand apart in the source; their conditions may differ.

Tests used:
Assay type in all cases: in vivo
Male C57BL6 mice [1] = experiment: Aβ42 administration study: plasma Aβ42, body measures, GTT with glucose tracers, cardiac TAG, gene expression
Method: Male C57BL6 mice were obtained from the Animal Resource Centre (Perth, Wash.) at 4 weeks of age and housed with 4 mice per cage on a 12 hr light/dark cycle at a temperature of 22° C. and a constant humidity with a normal rodent diet. At 12 weeks of age, mice were grouped according to body mass and composition, determined by EchoMRI. […] An i.p. glucose tolerance test (GTT) was performed on the final treatment day following an overnight fast. Mice were administered 2 g/kg lean mass of glucose including radioactive glucose tracers, prepared as follows. 100 μl of 1 μCi/μl glucose analogue, [^3H]-2-deoxyglucose (2-DOG), and 500 μl of 200 μCi/mL U-^14C glucose were evaporated to dryness before redissolving the radioactive tracers in 1 mL of 50% glucose. This produced a 50% glucose solution containing 100 μCi/mL [^3H]-2-DOG and 100 μCi/mL U-^14C glucose. The tail tip of each mouse was cut off and the blood glucose concentration of a blood sample was measured using an AccuCheck II glucometer (Roche). The GTT was initiated via intraperitoneal injection of the radiolabelled glucose solution (2 g/kg body weight, 10 uCi/animal) into the overnight-fasted mice. Further blood samples were taken at 15, 30, 45, 60 and 90 minutes after the injection for the measurement of blood glucose. Blood samples (30 μl) were also taken from the tail tip at each time point and diluted in 100 μl of saline. These samples were then centrifuged and the supernatant collected. 50 μl of the supernatant was diluted in 500 μl of distilled water and then suspended in 4 mL of Ultima Gold XR scintillation fluid (Packard Bioscience). Blood radioactivity was determined at each time point by performing liquid scintillation counting on each solution using the Beckman scintillation counter (LS6000 SC). At the conclusion of the GTT, mice were killed via cervical dislocation. Blood was obtained immediately following by cardiac puncture and the heart, and other tissues were immediately removed. Hearts were washed in ice cold PBS and weighed prior to being snap frozen in liquid nitrogen. The heart (30 mg), epididymal fat pad (30 mg and quadriceps skeletal muscle (30 mg) were homogenised in 1.5 ml of distilled water. The homogenate was centrifuged at 3000 rpm for 10 min at 4° C. 400 μl of the supernatant was diluted into 1.6 mL of distilled water and then suspended in 14 mL of Ultima Gold XR scintillation fluid (Packard Bioscience). The radioactivity of each sample (from both [^3H]-2-DOG6P and [^3H]-2-DOG) was determined by liquid scintillation counting using the Beckman scintillation counter (LS6000 SC). The ^3H radioactivity was used to measure glucose uptake into each tissue.
To determine the incorporation of U-^14C glucose into triglyceride and the total triglyceride content in the heart, an extraction of triglyceride was carried out using a chloroform/methanol mixture. Samples of heart (30 mg) were hand-homogenised in 2 mL of chloroform/methanol (2:1) and the homogeniser rinsed in a further 2 mL of chloroform/methanol (2:1), and the washings being added to the original extract in 10 mL tubes. The tubes were tightly capped and mixed on a rotator overnight to maximise extraction of the triglycerides. 2 ml of 0.6% saline was then added, to facilitate the separation of the organic and aqueous phases, after which the tubes were mixed thoroughly and then centrifuged at 2000 rpm for 10 minutes. The lower chloroform phase (containing triglycerides) was collected and evaporated to dryness under nitrogen at 45° C. The dried extract was then re-dissolved in 250 μl of 100% ethanol, to redissolve the lipid and enable aliquots to dispensed for assay. The amount of U-^14C glucose clearance into the lipid fraction was measured by suspending 100 μl of the triglyceride solution in 5 mL of Ultima Gold XR scintillation fluid (Packard Bioscience), followed by scintillation counting using the Beckman scintillation counter (LS6000 SC).

Male C57BL6 mice [2] = experiment: Aβ42 administration study: cardiac function by echocardiography
Method: (§1) After 4 weeks of peptide administration, cardiac function was assessed by echocardiography as follows. Mice were anaesthetised with inhalation of 1.5% isoflurane anaesthesia and echocardiography was performed using the Phillips HD15 diagnostic ultrasound system with a 15 MHz linear-array transducer by an experienced veterinarian. The velocity of blood flow through the mitral valve was analysed using Doppler mode imaging. […] Doppler imaging was also utilised to measure the velocity of blood flow through the aortic valve. The measurements were then used to calculate the ejection time, peak aortic flow and heart rate. M-mode imaging of the left ventricle was used to measure the thickness of the inter-ventricular septum (IVS), left ventricular internal diameter (LVID) and left ventricular posterior wall (LVPW) in both diastole (d) and end-systole (s) as well as systolic measures such as ejection fraction and fractional shortening. An estimation of LV mass was calculated from the m-mode imaging by using the formula (1.05 [LVIDd+LVPWd+IVSd]^3−[LVIDd]^3) by Troy et al. (1972). Mice were humanely killed by cervical dislocation 1 week later. Blood was obtained immediately following by cardiac puncture and the heart, and other tissues were immediately removed. Hearts were washed in ice cold PBS and weighed prior to being snap frozen in liquid nitrogen.
Hearts were also collected for morphological analysis (FIG. 2).

obese mice = experiment: PF06648671-High Fat Diet (HFD) treatment study: echocardiography
Method: (§2) PF06648671-High Fat Diet (HFD) treatment study: At 12 weeks of age, mice (n=30) were placed on a HFD with 43% of calories from fat (23.5% by weight; SF04-001 High Fat Rodent Diet Based on D12451, Specialty Feeds, Glen Forrest, Wash.). After 13 weeks of the diet period, echocardiography was performed on all mice to obtain pre-drug treatment measures of cardiac function. Mice were allocated to treatment groups so that measures of cardiac function and morphology were matched as best as possible. PF06648671 (Medkoo Biosciences) was resuspended in 100% DMSO before being diluted in a hydroxypropyl cellulose solution to give a final solution containing lmg/mL PF06648671 in 10% hydroxypropyl cellulose and 5% DMSO. A vehicle solution containing 10% hydroxypropyl cellulose and 5% DMSO was also made. Aliquots of both drug and vehicle were stored at −80° C. until required. The HFD/PF06648671 group was administered 4 mg/kg of PF06648671 per day by oral gavage, while the HFD/control group received an equivalent volume of vehicle. Echocardiography was then performed following 4 weeks of the treatment period to obtain post-drug treatment measures of cardiac function. Following 5 weeks of the drug administration, mice were humanely killed via cervical dislocation and blood was immediately obtained via cardiac puncture and stored in a heparinised tube. The heart, epididymal fat pad, mesenteric fat pad, liver, quadricep, hind limb and brain were then immediately dissected. The heart was blotted prior to being weighed and all tissues were snap frozen in liquid nitrogen and stored at −80° C. Plasma Aβ species were measured using high sensitivity ELISA kits (Wako Diagnostics) and plasma that was diluted 1:10 with assay buffer.

plasma Aβ species = experiment: PF06648671-High Fat Diet (HFD) treatment study: plasma Aβ species by ELISA; settings: obese mice
Method: as §2, with “Following 5 weeks of the drug administration, mice were humanely killed via cervical dislocation and blood was immediately obtained via cardiac puncture and stored in a heparinised tube. The heart, epididymal fat pad, mesenteric fat pad, liver, quadricep, hind limb and brain were then immediately dissected. The heart was blotted prior to being weighed and all tissues were snap frozen in liquid nitrogen and stored at −80° C.” left out

Male C57BL6 mice [3] = experiment: Aβ40 administration study: plasma Aβ40 and echocardiography; settings: 1 μg/day i.p.
Method: as §1, with “Aβ40 administration study: Lyophilised recombinant Aβ40 (Millipore) and scrambled control peptide (ScrAβ40; Millipore) were resuspended in 1% NH4OH and aliquoted at 200 ng/ml in H2O and stored at −80° C. for no longer than 4 weeks. Male C57BL6 mice were obtained from the Animal Resource Centre (Perth, Wash.) at 4 weeks of age and housed with 4 mice per cage on a 12 hr light/dark cycle at a temperature of 22° C. and a constant humidity with a normal rodent diet. At 12 weeks of age, mice were grouped according to body mass and composition, determined by EchoMRI. Mice were then administered 1 μg of recombinant Aβ40 or ScrAβ40 (n=12/group per cohort) by i.p. injection once/day for 5 wks. After” for “After”, “(1.05[LVIDd+LVPWd+IVSd]^3−[LVIDd]^3)” for “(1.05 [LVIDd+LVPWd+IVSd]^3−[LVIDd]^3)”, “nitrogen. Plasma Aβ40 was measured using a high sensitivity ELISA kit (Wako Diagnostics) and plasma that was diluted 1:10 with assay buffer.” for “nitrogen.”

[4] = GTT after five weeks of peptide, vs ScrAβ42

Aβ42: Lyophilised recombinant Aβ42 (Millipore)
increase in plasma Aβ42 (Male C57BL6 mice [1]; 1 μg/day i.p., five weeks, compared with ScrAβ42 (FIG. 1A)): approximately 3 fold
plasma insulin throughout the GTT (Male C57BL6 mice [1]; [4]): no difference
whole body glucose tolerance (Male C57BL6 mice [1]; [4]): no difference
glucose incorporation into TAG (14C-glucose labelling) (Male C57BL6 mice [1]; heart, after five weeks of peptide (FIG. 1C)): greater
total TAG (Male C57BL6 mice [1]; heart, after five weeks of peptide (FIG. 1D)): increased
cardiac gene expression (inflammation, endoplasmic reticulum stress) (Male C57BL6 mice [1]; heart, after five weeks of peptide (FIG. 1E)): gene expression changes indicative of cardiac stress responses
internal dimensions of the left ventricle (LVIDd) (Male C57BL6 mice [2]; Aβ42 vs ScrAβ42 (FIG. 2B)): no effect
deceleration time (Male C57BL6 mice [2]; Aβ42 vs ScrAβ42 (FIG. 2D)): increased
E normalised by isovolumetric relaxation time (IVRT) (Male C57BL6 mice [2]; Aβ42 vs ScrAβ42 (FIG. 2E)): no significant difference
fractional shortening (Male C57BL6 mice [2]; Aβ42 vs ScrAβ42 (FIG. 2F)): reduced
ejection fraction (Male C57BL6 mice [2]; Aβ42 vs ScrAβ42 (FIG. 2G)): reduced
gross heart weight (Male C57BL6 mice [2]; Aβ42 vs ScrAβ42, five weeks (FIG. 2A)): no effect

Cc1cn(-c2ccc3n(c2=O)CCN([C@@H](C)[C@@H]2CC[C@H](c4cc(F)c(Cl)cc4C(F)(F)F)O2)C3=O)cn1 [PF06648671]
relative change in the E:A ratio, Vehicle vs PF06648671 groups (obese mice; obese mice (FIG. 7D)): significantly different
E:A ratio Pre-treatment to Post-treatment (obese mice; obese mice, 4 mg/kg per day oral gavage, 4 weeks (FIG. 7C)): did not change; also recorded: prevented deterioration
E:A ratio relative to Pre-treatment values (obese mice; obese mice, 4 mg/kg per day oral gavage, 4 weeks (FIG. 7D)): 114%
plasma Aβ40 (plasma Aβ species; 4 mg/kg per day oral gavage (FIG. 7A)): decreased
plasma Aβ42 (plasma Aβ species; 4 mg/kg per day oral gavage (FIG. 7B), 4 mg/kg/day): decreased; also recorded: reduced

Aβ40: Lyophilised recombinant Aβ40 (Millipore)
E:A ratio (Male C57BL6 mice [3]; 5 weeks (FIG. 6B)): did not have any effect
DT (Male C57BL6 mice [3]; 5 weeks (FIG. 6C)): did not have any effect
ejection fraction (Male C57BL6 mice [3]; 5 weeks (FIG. 6E)): nor any effect
IVSd (Male C57BL6 mice [3]; 5 weeks (FIG. 6F)): no effect
LVIDd (Male C57BL6 mice [3]; 5 weeks (FIG. 6G)): no effect
LV mass (Male C57BL6 mice [3]; 5 weeks (FIG. 6H)): no effect
plasma Aβ40 (Male C57BL6 mice [3]; 5 weeks, vs ScrAβ40 (FIG. 6A)): significantly increased
